Key:
Type in all cases: cell-based
[1] = biological target: T1, STAT3 (Homo sapiens, UniProt P40763); assay: STAT3 reporter gene assay (luciferase), LNCaP stable cell line (pSTAT3-TA-luc), IL-6 stimulation
T1 construct: plasmid pSTAT3-TA-luc), which contains a stably operating STAT3 promoter; endogenous in cells
Method: 1-1) Experiment on the Inhibition of STAT3 Activity
A human prostate cancer cell line (LNCaP stable cell line; plasmid pSTAT3-TA-luc), which contains a stably operating STAT3 promoter, was cultured in RPMI1640 medium (Cat No. 11875, Life Technologies) containing 10% fetal bovine serum (FBS) (Cat No. SH30396, Thermo Scientific) and 150 μg/mL G-418 solution (Cat No. 04 727 894 001, Roche). The reporter gene assay using LNCaP stable cell line was performed in RPMI1640 medium containing 3% DCC-FBS without G-418 solution. LNCaP stable cells were plated in two (2) white 96-well plates with 30,000 cells/50 μL in each well. The cells were cultured at 37° C., under 5% CO2 for 24 hours, and then treated with the compounds listed in Examples which were diluted in various concentrations. Subsequently, IL-6 was added to each well with a final concentration of 10 ng/mL. Upon completion of the treatment with the compounds and IL-6, the cells were cultured at 37° C., under 5% CO2 for from 24 to 48 hours. The plates were observed under microscope and drug precipitation and particular findings were investigated and recorded.
The luciferase assay and the cell viability assay were performed respectively with one of the two plates. For the luciferase assay, the liquid media in the 96-well plate was removed, and then, 20 μL of passive cell lysis buffer was added to each well. After shaking the plate for 30 minutes, luciferase activities of each well were measured in a PHERAstar™ microplate reader (BMG LABTECH) using a luciferase assay system (Cat No. E1501, Promega). For the cell viability assay, the 96-well plate was placed at room temperature for 30 minutes, added with 20 μL/well of CellTiter-Glo solution (Cat No. G7573, Promega), and shaken for 10 minutes in order to measure cytotoxicity caused by the compounds listed in Examples with a PHERAstar™ microplate reader (BMG LABTECH). Wells without 0.1% DMSO and stimulation were used as a negative control and wells with 0.1% DMSO and stimulation were used as a positive control.

[2] = tested on: LNCaP; assay: Cell growth inhibition assay, prostate cancer cell line LNCaP (medium with 10 ng/mL IL-6); details: Homo sapiens, medium supplemented with 10 ng/mL of IL-6, 10,000 cells/well
Method: (§1) The inhibitory effects of the compounds of the present invention against the growth of cancer cells were evaluated as shown below. The cancer cell lines including stomach cancer cell line (AGS), breast cancer cell lines (MDA-MB-231, MDA-MB-468, and BT-549), prostate cancer cell lines (LNCaP and DU-145), colon cancer cell line (HCT116), ovarian cancer cell line (SW626), liver cancer cell line (Hep3B), kidney cancer cell line (ACHN), lung cancer cell line (NCI-H23) and blood cancer cell lines (HEL92.1.7 and U266) were cultured under the protocol provided by each supplier. A medium supplemented with 10 ng/mL of IL-6 was used for LNCaP, a prostate cancer cell line, when treated with a drug. Each type of cells to be used in experiments were sub-cultured in a 96-well plate by counting the exact number of cells using Tali™ Image-based Cytometer (Life Technologies). In a 96-well plate, AGS, HCT116, and DU-145 were employed with 3,000 cells/well; NCI-H23, SW626, Hep3B, ACHN, BT-549, MDA-MB-231, HEL92.1.7, and U266 were employed with 5,000 cells/well; and LNCaP and MDA-MB-468 were employed with 10,000 cells/well. The cells were treated with the compounds listed in Examples which were diluted in various concentrations. Upon completion of the compounds treatment, AGS, HCT116, SW626, DU145, NCI-H23, Hep3B, ACHN, BT-549, LNCaP, HEL92.1.7, and U266 cells were cultured at 37° C. under 5% CO2 for from 72 to 96 hours, and MDA-MB-231 and MDA-MB-468 cells were cultured at 37° C. in air for from 72 to 96 hours. Subsequently, the cells were observed under microscope and drug precipitation and particular findings were investigated and recorded. And then, the 96-well plate was placed at room temperature for 30 minutes, added with 20 μL/well of CellTiter-Glo solution (Cat No. G7573, Promega) and shaken for 10 minutes, followed by being subjected to the measurement using PHERAstar™ microplate reader (BMG LABTECH) according to the supplier's general luminometer protocol. Wells where only culture liquid added without cell plating were used as a negative control, whereas wells where culture liquid containing 0.1% DMSO instead of the compounds listed in Examples were used as a positive control.

[3] = tested on: DU-145; assay: Cell growth inhibition assay, prostate cancer cell line DU-145; details: Homo sapiens, DU-145 prostate cancer cell line
Method: as §1

T1 sequence (P40763 whole entry): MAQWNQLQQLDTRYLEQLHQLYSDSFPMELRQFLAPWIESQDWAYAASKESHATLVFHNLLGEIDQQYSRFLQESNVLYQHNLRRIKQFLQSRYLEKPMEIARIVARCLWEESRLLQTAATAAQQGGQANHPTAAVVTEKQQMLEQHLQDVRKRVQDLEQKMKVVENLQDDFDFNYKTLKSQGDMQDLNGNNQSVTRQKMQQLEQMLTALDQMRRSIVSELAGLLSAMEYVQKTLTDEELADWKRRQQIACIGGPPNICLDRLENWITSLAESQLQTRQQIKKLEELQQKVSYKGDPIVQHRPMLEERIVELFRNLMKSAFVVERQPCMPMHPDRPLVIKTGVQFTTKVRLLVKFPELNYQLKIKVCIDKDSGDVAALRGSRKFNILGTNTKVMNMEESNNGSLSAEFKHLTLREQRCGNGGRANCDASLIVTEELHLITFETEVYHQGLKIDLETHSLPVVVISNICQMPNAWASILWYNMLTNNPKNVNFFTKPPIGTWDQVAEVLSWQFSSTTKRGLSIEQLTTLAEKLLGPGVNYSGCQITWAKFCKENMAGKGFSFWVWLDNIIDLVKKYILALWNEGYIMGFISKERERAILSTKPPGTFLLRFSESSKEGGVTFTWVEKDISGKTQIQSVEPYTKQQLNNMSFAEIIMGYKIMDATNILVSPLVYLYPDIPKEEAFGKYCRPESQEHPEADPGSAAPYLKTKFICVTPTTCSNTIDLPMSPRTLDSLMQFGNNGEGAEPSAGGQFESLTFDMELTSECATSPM

SMILES	IC50 [1] [µM]	IC50 [2] [µM]	IC50 [3] [µM]
CS(=O)(=O)Nc1ccc2sc(C(=O)Nc3cc(Cl)cc(-c4cncc(Cl)n4)c3)cc2c1 [Example 339, N-(3-chloro-5-(6-chloropyrazin-2-yl)phenyl)-5-(methylsulfonamido)benzo[b]thiophene-2-carboxamide]	0.76	0.56	0.31
COc1cccc(C(C)(C)c2cc(Cl)cc(NC(=O)c3cc4cc(NS(C)(=O)=O)ccc4s3)c2)c1 [Example 106, N-(3-chloro-5-(2-(3-methoxyphenyl)propan-2-yl)phenyl)-5-(methylsulfonamido)benzo[b]thiophene-2-carboxamide]	0.52	0.11	0.031
CC(C)(c1cc(Cl)cc(NC(=O)c2cc3cc(NS(C)(=O)=O)c(Cl)cc3s2)c1)c1ccc(Cl)s1 [Example 175, 6-chloro-N-(3-chloro-5-(2-(5-chlorothiophen-2-yl)propan-2-yl)phenyl)-5-(methylsulfonamido)benzo[b]thiophene-2-carboxamide]	0.007	0.016	0.005
CC(C)(c1cc(Cl)cc(NC(=O)c2cc3cc(NS(C)(=O)=O)ccc3s2)c1)c1cc(OC2COC2)cc(OC(F)(F)F)c1 [Example 76, N-(3-chloro-5-(2-(3-(oxetan-3-yloxy)-5-(trifluoromethoxy)phenyl)propan-2-yl)phenyl)-5-(methylsulfonamido)benzo[b]thiophene-2-carboxamide]	3	0.23	0.34
CS(=O)(=O)Nc1cc2cc(C(=O)Nc3cc(Cl)cc(Oc4ccc(F)c(Cl)c4)c3)sc2cc1Cl [Example 476, 6-chloro-N-(3-chloro-5-(3-chloro-4-fluorophenoxy)phenyl)-5-(methylsulfonamido)benzo[b]thiophene-2-carboxamide]	0.021	0.022	0.005
CS(=O)(=O)Nc1ccc2sc(C(=O)Nc3cc(Cl)cc(C4(c5ccc(Cl)cc5)CC4)c3)cc2c1 [Example 432, N-(3-chloro-5-(1-(4-chlorophenyl)cyclopropyl)phenyl)-5-(methylsulfonamido)benzo[b]thiophene-2-carboxamide]	0.049	0.073	0.06
CS(=O)(=O)Nc1cc2cc(C(=O)Nc3cc(Cl)cc(Oc4ccc(Cl)cc4)c3)sc2cc1Cl [Example 449, 6-chloro-N-(3-chloro-5-(4-chlorophenoxy)phenyl)-5-(methylsulfonamido)benzo[b]thiophene-2-carboxamide]	0.024	0.022	0.01
CC(C)(c1ccc(S(C)(=O)=O)cc1)c1cc(Cl)cc(NC(=O)c2cc3cc(NS(C)(=O)=O)ccc3s2)c1 [Example 161, N-(3-chloro-5-(2-(4-(methylsulfonyl)phenyl)propan-2-yl)phenyl)-5-(methylsulfonamido)benzo[b]thiophene-2-carboxamide]	> 10	> 1.1	0.72
COc1cccc(Oc2cc(Cl)cc(NC(=O)c3cc4cc(NS(C)(=O)=O)ccc4s3)c2)c1 [Example 457, N-(3-chloro-5-(3-methoxyphenoxy)phenyl)-5-(methylsulfonamido)benzo[b]thiophene-2-carboxamide]	0.28	0.37	0.44
CC(C)Oc1cc(OC(F)(F)F)cc(C(C)(C)c2cc(Cl)cc(NC(=O)c3cc4cc(NS(=O)(=O)CC5CCCO5)ccc4s3)c2)c1 (stereo not drawn) [Example 197, N-(3-chloro-5-(2-(3-isopropoxy-5-(trifluoromethoxy)phenyl)propan-2-yl)phenyl)-5-(((tetrahydrofuran-2-yl)methyl)sulfonamido)benzo[b]thiophene-2-carboxamide]	0.012	0.065	0.016
Cn1nccc1-c1ccc(C(C)(C)c2cc(Cl)cc(NC(=O)c3cc4cc(NS(C)(=O)=O)ccc4s3)c2)cc1 [Example 159, N-(3-chloro-5-(2-(4-(1-methyl-1H-pyrazol-5-yl)phenyl)propan-2-yl)phenyl)-5-(methylsulfonamido)benzo[b]thiophene-2-carboxamide]	0.31	0.16	0.14
COCCS(=O)(=O)Nc1cc2cc(C(=O)Nc3cc(Cl)cc(C(C)(C)c4ccc(Cl)cc4)c3)sc2cc1Cl [Example 185, 6-chloro-N-(3-chloro-5-(2-(4-chlorophenyl)propan-2-yl)phenyl)-5-((2-methoxyethyl)sulfonamido)benzo[b]thiophene-2-carboxamide]	0.007	0.072	0.007
CS(=O)(=O)Nc1ccc2sc(C(=O)Nc3cc(Cl)cc(Oc4cc(F)cc(Cl)c4)c3)cc2c1 [Example 469, N-(3-chloro-5-(3-chloro-5-fluorophenoxy)phenyl)-5-(methylsulfonamido)benzo[b]thiophene-2-carboxamide]	0.36	0.12	0.086
CC#Cc1cc(OC(F)(F)F)cc(C(C)(C)c2cc(Cl)cc(NC(=O)c3cc4cc(NS(C)(=O)=O)ccc4s3)c2)c1 [Example 114, N-(3-chloro-5-(2-(3-(prop-1-yn-1-yl)-5-(trifluoromethoxy)phenyl)propan-2-yl)phenyl)-5-(methylsulfonamido)benzo[b]thiophene-2-carboxamide]	0.02	0.061	0.014
COc1sccc1C(C)(C)c1cc(Cl)cc(NC(=O)c2cc3cc(NS(C)(=O)=O)ccc3s2)c1 [Example 176, N-(3-chloro-5-(2-(2-methoxythiophen-3-yl)propan-2-yl)phenyl)-5-(methylsulfonamido)benzo[b]thiophene-2-arboxamide]	0.036	0.071	0.038
CC(C)(c1cc(Cl)cc(NC(=O)c2cc3cc(NS(C)(=O)=O)c(Cl)cc3s2)c1)N1CCCCC1 [Example 165, 6-chloro-N-(3-chloro-5-(2-(piperidin-1-yl)propan-2-yl)phenyl)-5-(methylsulfonamido)benzo[b]thiophene-2-carboxamide]	0.13	0.11	0.07
CS(=O)(=O)Nc1ccc2sc(C(=O)Nc3cc(Cl)cc(-c4ccc(F)cc4F)c3)c(O)c2c1 [Example 335, N-(5-chloro-2′,4′-difluoro-[1,1′-biphenyl]-3-yl)-3-hydroxy-5-(methylsulfonamido)benzo[b]thiophene-2-carboxamide]	5.7	> 1.1	> 1.1
COc1cc(Cl)cc(Oc2cc(Cl)cc(NC(=O)c3cc4cc(NS(C)(=O)=O)c(Cl)cc4s3)c2)c1 [Example 474, 6-chloro-N-(3-chloro-5-(3-chloro-5-methoxyphenoxy)phenyl)-5-(methylsulfonamido)benzo[b]thiophene-2-carboxamide]	0.048	0.059	0.022
CS(=O)(=O)Nc1ccc2sc(C(=O)Nc3cc(Cl)cc(Oc4ccc(F)c(OC(F)(F)F)c4)c3)cc2c1 [Example 470, N-(3-chloro-5-(4-fluoro-3-(trifluoromethoxy)phenoxy)phenyl)-5-(methylsulfonamido)benzo[b]thiophene-2-carboxamide]	0.32	0.067	0.043
